Structures can show the parent of a compound that is named as a salt.
What was measured:
full-length human PHD1 = molecular target: T1, full-length human PHD1 (Homo sapiens, UniProt Q96KS0); assay: TR-FRET assay, enzymatic IC50 against PHD1; assay type: biochemical; note: 15 nM PHD1
T1 construct: FLAG (N); purchased Active Motif 81064; host or cells: baculovirus expression system
Text: PHD1 was expressed in a baculovirus expression system as the full-length protein (NCBI accession number NP_542770.2) with an N-terminal FLAG tag (molecular weight 44.9 kDa).

full-length human PHD3 = molecular target: T2, full-length human PHD3 (Homo sapiens, UniProt Q9H6Z9); assay: TR-FRET assay, enzymatic IC50 against PHD3; assay type: biochemical; note: 35 nM PHD3
T2 construct: 6-His (N); purchased Active Motif 81033; host or cells: E. coli
Text: Recombinant human PHD3 protein (molecular weight 31.1 kDa) was purchased from Active Motif (Carlsbad, Calif., USA). It was expressed in E. coli as the full-length protein (NCBI accession number NP_071356.1) with an N-terminal 6-His tag (catalog #81033, Lot #24417001).

full-length human PHD2 = full-length human PHD2 (Homo sapiens, UniProt Q9GZT9); assay: TR-FRET assay, enzymatic IC50 against PHD2
Sequence of full-length human PHD2 (Q9GZT9 whole entry): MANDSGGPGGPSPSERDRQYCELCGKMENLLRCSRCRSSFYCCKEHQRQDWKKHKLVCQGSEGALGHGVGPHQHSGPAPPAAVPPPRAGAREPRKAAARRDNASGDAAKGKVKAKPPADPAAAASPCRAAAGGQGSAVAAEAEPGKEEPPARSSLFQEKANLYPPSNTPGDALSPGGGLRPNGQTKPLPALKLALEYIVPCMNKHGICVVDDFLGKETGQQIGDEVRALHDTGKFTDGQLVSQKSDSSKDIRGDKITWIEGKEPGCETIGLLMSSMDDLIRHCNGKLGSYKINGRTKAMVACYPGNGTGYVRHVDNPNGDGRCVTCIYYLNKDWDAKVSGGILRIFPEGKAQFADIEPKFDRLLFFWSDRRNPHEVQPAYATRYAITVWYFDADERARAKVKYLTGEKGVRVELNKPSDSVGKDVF
Text: Time-resolved fluorescence resonance energy transfer (TR-FRET) assay was utilized to determine the enzymatic half maximal inhibitory concentration (IC50) value of PHD inhibitors against the full-length human prolyl-4-hydroxylase domain (PHD) enzymes, PHD1, PHD2, and PHD3. The TR-FRET assay was developed based on the specific binding of hydroxylated HIF-1α peptide with the complex formed by VHL, EloB and EloC (VBC), to generate a fluorescent signal. Terbium (Tb)-Donor (monoclonal antibody anti-6His-Tb-cryptate Gold) and D2-acceptor (streptavidin [SA]-D2) of TR-FRET are linked to the VBC complex and to HIF-1α peptide, respectively. The VBC complex binds specifically to the HIF-1α peptide when it is hydroxylated, allowing energy transfer from TR-FRET donor to acceptor (FIG. 1). […] The plates were incubated for 30 minutes at room temperature without rotation. […] TR-FRET assays were performed in triplicate at each concentration of compound and the assays were repeated independently three times.

T2 sequence (Q9H6Z9 whole entry): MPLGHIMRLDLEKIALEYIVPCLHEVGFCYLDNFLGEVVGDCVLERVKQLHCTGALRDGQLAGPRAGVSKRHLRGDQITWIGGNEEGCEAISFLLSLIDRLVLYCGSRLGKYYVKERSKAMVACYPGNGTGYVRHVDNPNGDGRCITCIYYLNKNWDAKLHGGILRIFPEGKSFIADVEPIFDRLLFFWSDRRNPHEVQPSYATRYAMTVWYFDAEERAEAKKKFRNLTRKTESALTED
T1 sequence (Q96KS0 whole entry): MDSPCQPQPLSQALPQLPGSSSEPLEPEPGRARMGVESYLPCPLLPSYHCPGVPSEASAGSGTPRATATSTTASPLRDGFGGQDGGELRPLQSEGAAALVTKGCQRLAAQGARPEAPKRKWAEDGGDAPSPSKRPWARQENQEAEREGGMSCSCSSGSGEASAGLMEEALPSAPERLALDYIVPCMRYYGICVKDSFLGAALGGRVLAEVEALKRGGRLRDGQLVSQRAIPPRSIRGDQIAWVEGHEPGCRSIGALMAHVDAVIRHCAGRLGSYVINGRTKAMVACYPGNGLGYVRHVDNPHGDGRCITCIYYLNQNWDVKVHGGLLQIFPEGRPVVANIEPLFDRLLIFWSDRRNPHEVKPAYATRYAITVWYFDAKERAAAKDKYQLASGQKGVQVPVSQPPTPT

Row | Structure (SMILES) | IC50 (full-length human PHD1) [nM] | IC50 (full-length human PHD3) [nM] | IC50 (full-length human PHD2) [nM]
1 | Cc1nn(-c2ccc(NS(=O)(=O)CC(=O)O)cn2)c(O)c1-c1ccc(C#N)cc1 [Compound 55, 2-(N-(6-(4-(4-cyanophenyl)-5-hydroxy-3-methyl-1H-pyrazol-1-yl)pyridin-3-yl)sulfamoyl)acetic acid] | < 100 | < 100 | < 100
2 | Cc1nn(-c2ccc(N3CCCC3=O)cn2)c(O)c1-c1ccc(C#N)cc1 [Compound 7, 4-(5-hydroxy-3-methyl-1-(5-(2-oxopyrrolidin-1-yl)pyridin-2-yl)-1H-pyrazol-4-yl)benzonitrile] | < 100 | 100 to 1000 | < 100
3 | Cc1nn(-c2ccc(S(C)(=N)=O)cn2)c(O)c1-c1ccc(C#N)cc1 (centres unmarked) [Compound 13, 4-(5-hydroxy-3-methyl-1-(5-(S-methylsulfonimidoyl)pyridin-2-yl)-1H-pyrazol-4-yl)benzonitrile] | < 100 | 100 to 1000 | < 100
4 | Cc1nn(-c2ccc([S+](C)[O-])cn2)c(O)c1-c1ccc(C#N)cc1 (centres unmarked) [Compound 12, 4-(5-hydroxy-3-methyl-1-(5-(methylsulfinyl)pyridin-2-yl)-1H-pyrazol-4-yl)benzonitrile] | < 100 | < 100 | < 100
5 | Cc1nn(-c2ccc(S(C)(=O)=O)cn2)c(O)c1-c1ccc(C#N)cc1 [Compound 3, 4-(5-hydroxy-3-methyl-1-(5-(methylsulfonyl)pyridin-2-yl)-1H-pyrazol-4-yl)benzonitrile] | < 100 | < 100 | < 100
6 | Cc1nn(-c2ccc(S(C)(=O)=O)cn2)c(O)c1-c1ccc(C#N)cn1 [Compound 44, 6-(5-hydroxy-3-methyl-1-(5-(methylsulfonyl)pyridin-2-yl)-1H-pyrazol-4-yl)nicotinonitrile] | 100 to 1000 | 1000 to 10000 | 100 to 1000
7 | Cc1cc(-n2nc(C)c(-c3ccc(C#N)cc3)c2O)ncc1P(C)(C)=O [Compound 36, 4-(1-(5-(dimethylphosphoryl)-4-methylpyridin-2-yl)-5-hydroxy-3-methyl-1H-pyrazol-4-yl)benzonitrile] | < 100 | 100 to 1000 | < 100
8 | Cc1nn(-c2ccc(S(C)(=O)=NC#N)cn2)c(O)c1-c1ccc(C#N)cc1 (centres unmarked) [Compound 58, N-((6-(4-(4-cyanophenyl)-5-hydroxy-3-methyl-1H-pyrazol-1-yl)pyridin-3-yl)(methyl)(oxo)-λ^6-sulfaneylidene)cyanamide] | < 100 | 100 to 1000 | < 100
9 | Cc1nn(-c2ccc(S(C)(=O)=O)cn2)c(O)c1-c1ccc(Cl)cc1 [Compound 1, 4-(4-chlorophenyl)-3-methyl-1-(5-(methylsulfonyl)pyridin-2-yl)-1H-pyrazol-5-ol] | < 100 | 100 to 1000 | < 100
10 | Cc1nn(-c2ccc(C(=O)NS(C)(=O)=O)cn2)c(O)c1-c1ccc(C#N)cc1 [Compound 27, 6-(4-(4-cyanophenyl)-5-hydroxy-3-methyl-1H-pyrazol-1-yl)-N-(methylsulfonyl)nicotinamide] | < 100 | < 100 | < 100
11 | Cc1nn(-c2ccc(S(N)(=O)=O)cn2)c(O)c1-c1ccc(C#N)cc1 [Compound 11, 6-(4-(4-cyanophenyl)-5-hydroxy-3-methyl-1H-pyrazol-1-yl)pyridine-3-sulfonamide] | < 100 | < 100 | < 100
12 | Cc1nn(-c2ccc(S(=N)(=O)C3CCCC3)cn2)c(O)c1-c1ccc(C#N)cc1 (centres unmarked) [Compound 35, 4-(1-(5-(cyclopentanesulfonimidoyl)pyridin-2-yl)-5-hydroxy-3-methyl-1H-pyrazol-4-yl)benzonitrile] | < 100 | < 100 | < 100
13 | Cc1cc(C#N)ccc1-c1c(C)nn(-c2ccc(S(C)(=O)=O)cn2)c1O [Compound 2, 4-(5-hydroxy-3-methyl-1-(5-(methylsulfonyl)pyridin-2-yl)-1H-pyrazol-4-yl)-3-methylbenzonitrile] | < 100 | < 100 | < 100
14 | CCC(=O)Nc1ccc(-n2nc(C)c(-c3ccc(C#N)cc3)c2O)nc1 [Compound 9, N-(6-(4-(4-cyanophenyl)-5-hydroxy-3-methyl-1H-pyrazol-1-yl)pyridin-3-yl)propionamide] | < 100 | 100 to 1000 | < 100
15 | Cc1nn(-c2ccc([S@@](=N)(=O)C3CC3)cn2)c(O)c1-c1ccc(C#N)cc1 [Compound 56, (S)-4-(1-(5-(cyclopropanesulfonimidoyl)pyridin-2-yl)-5-hydroxy-3-methyl-1H-pyrazol-4-yl)benzonitrile] | < 100 | < 100 | < 100
16 | Cc1nn(-c2ccc(S(=N)(=O)C3CCC3)cn2)c(O)c1-c1ccc(C#N)cc1 (centres unmarked) [Compound 34, 4-(1-(5-(cyclobutanesulfonimidoyl)pyridin-2-yl)-5-hydroxy-3-methyl-1H-pyrazol-4-yl)benzonitrile] | < 100 | < 100 | < 100

Row | Structure (SMILES) | IC50 (full-length human PHD1) [nM] | IC50 (full-length human PHD3) [nM] | IC50 (full-length human PHD2) [nM]
17 | Cc1nn(-c2ccc(-n3cccn3)cn2)c(O)c1-c1ccc(C#N)cc1 [Compound 63, 4-(1-(5-(1H-pyrazol-1-yl)pyridin-2-yl)-5-hydroxy-3-methyl-1H-pyrazol-4-yl)benzonitrile] | < 100 |  | 100 to 1000
18 | Cc1nn(-c2ccc([S@](C)(=N)=O)cn2)c(O)c1-c1ccc(C#N)cc1 [Compound 17, (R)-4-(5-hydroxy-3-methyl-1-(5-(S-methylsulfonimidoyl)pyridin-2-yl)-1H-pyrazol-4-yl)benzonitrile] | < 100 |  | < 100
19 | Cc1cc(-n2nc(C)c(-c3ccc(C#N)cc3)c2O)ncc1S(=O)(=O)NC1CC1 [Compound 71, 6-(4-(4-cyanophenyl)-5-hydroxy-3-methyl-1H-pyrazol-1-yl)-N-cyclopropyl-4-methylpyridine-3-sulfonamide] | < 100 |  | < 100
20 | Cc1nn(-c2ccc(S(=N)(N)=O)cn2)c(O)c1-c1ccc(C#N)cc1 (centres unmarked) [Compound 24, 6-(4-(4-cyanophenyl)-5-hydroxy-3-methyl-TH-pyrazol-1-yl)pyridine-3-sulfonimidamide] | < 100 |  | < 100
21 | Cc1nn(-c2ccc(C3CN(S(C)(=O)=O)C3)cn2)c(O)c1-c1ccc(C#N)cc1 [Compound 43, 4-(5-hydroxy-3-methyl-1-(5-(1-(methylsulfonyl)azetidin-3-yl)pyridin-2-yl)-1H-pyrazol-4-yl)benzonitrile] | < 100 |  | < 100
22 | Cc1nn(-c2ccc(P(C)(C)=O)cn2)c(O)c1-c1ccc(C#N)cc1 [Compound 14, 4-(1-(5-(dimethylphosphoryl)pyridin-2-yl)-5-hydroxy-3-methyl-1H-pyrazol-4-yl)benzonitrile] | < 100 |  | < 100
23 | Cc1nn(-c2ccc(NS(C)(=O)=O)cn2)c(O)c1-c1ccc(Cl)cc1 [Compound 67, N-(6-(4-(4-chlorophenyl)-5-hydroxy-3-methyl-1H-pyrazol-1-yl)pyridin-3-yl)methanesulfonamide] | < 100 |  | < 100
24 | Cc1nn(-c2ccc([S@+](C)[O-])cn2)c(O)c1-c1ccc(C#N)cc1 [Compound 22, (S)-4-(5-hydroxy-3-methyl-1-(5-(methylsulfinyl)pyridin-2-yl)-1H-pyrazol-4-yl)benzonitrile] | < 100 |  | < 100
25 | Cc1cc(-n2nc(C)c(-c3ccc(C#N)cc3)c2O)ncc1S(C)(=N)=O (centres unmarked) [Compound 40, 4-(5-hydroxy-3-methyl-1-(4-methyl-5-(S-methylsulfonimidoyl)pyridin-2-yl)-1H-pyrazol-4-yl)benzonitrile] | < 100 |  | < 100
26 | Cc1nn(-c2ccc([S@@+](C)[O-])cn2)c(O)c1-c1ccc(C#N)cc1 [Compound 23, (R)-4-(5-hydroxy-3-methyl-1-(5-(methylsulfinyl)pyridin-2-yl)-1H-pyrazol-4-yl)benzonitrile] | < 100 |  | < 100
27 | Cc1nn(-c2ccc(NC(=O)N3CCNCC3)cn2)c(O)c1-c1ccc(C#N)cc1 [Compound 32, N-(6-(4-(4-cyanophenyl)-5-hydroxy-3-methyl-1H-pyrazol-1-yl)pyridin-3-yl)piperazine-1-carboxamide hydrochloride] | 100 to 1000 |  | 100 to 1000
28 | Cc1nn(-c2ccc([S@](=N)(=O)C3CC3)cn2)c(O)c1-c1ccc(Cl)cc1 [Compound 66, (R)-(6-(4-(4-chlorophenyl)-5-hydroxy-3-methyl-1H-pyrazol-1-yl)pyridin-3-yl)(cyclopropyl)(imino)-λ^6-sulfanone] | < 100 |  | < 100
29 | Cc1nn(-c2ccc(-c3nccs3)cn2)c(O)c1-c1ccc(C#N)cc1 [Compound 60, 4-(5-Hydroxy-3-methyl-1-(5-(thiazol-2-yl)pyridin-2-yl)-1H-pyrazol-4-yl)benzonitrile] | < 100 |  | 100 to 1000
30 | Cc1nn(-c2ccc(-c3nn[nH]n3)cn2)c(O)c1-c1ccc(C#N)cc1 [Compound 50, 4-(1-(5-(2H-tetrazol-5-yl)pyridin-2-yl)-5-hydroxy-3-methyl-1H-pyrazol-4-yl)benzonitrile] | < 100 |  | < 100
31 | CCS(=N)(=O)c1ccc(-n2nc(C)c(-c3ccc(C#N)cc3)c2O)nc1 (centres unmarked) [Compound 21, 4-(5-hydroxy-3-methyl-1-(5-(S-ethylsulfonimidoyl)pyridin-2-yl)-1H-pyrazol-4-yl)benzonitrile] | < 100 |  | < 100
32 | Cc1nn(-c2ccc(S(=N)(=O)C(C)C)cn2)c(O)c1-c1ccc(C#N)cc1 (centres unmarked) [Compound 19, 4-(5-hydroxy-3-methyl-1-(5-(propan-2-ylsulfonimidoyl)pyridin-2-yl)-1H-pyrazol-4-yl)benzonitrile] | < 100 |  | < 100
